Assays:
RAW264.7 cells = assay: GS-EFAD adducts in activated RAW264.7 cells; format: cell-based, murine; conditions: activated RAW264.7 cells + ASA
Ovine placental COX-2 = target: T1, Ovine placental COX-2 (Ovis aries, UniProt P79208); assay: In vitro COX-2 reaction with DPA ± ASA; format: biochemical; conditions: purified ovine COX-2 + DPA 10 μM, 2 mM ASA
T1 construct: Ovine placental COX-2 (Cayman 60120) was also from Cayman Chemicals; purchased Cayman Chemicals 60120; host or cells: ovine placenta (tissue-derived, from the word 'placental')
T1 sequence (P79208 17-603): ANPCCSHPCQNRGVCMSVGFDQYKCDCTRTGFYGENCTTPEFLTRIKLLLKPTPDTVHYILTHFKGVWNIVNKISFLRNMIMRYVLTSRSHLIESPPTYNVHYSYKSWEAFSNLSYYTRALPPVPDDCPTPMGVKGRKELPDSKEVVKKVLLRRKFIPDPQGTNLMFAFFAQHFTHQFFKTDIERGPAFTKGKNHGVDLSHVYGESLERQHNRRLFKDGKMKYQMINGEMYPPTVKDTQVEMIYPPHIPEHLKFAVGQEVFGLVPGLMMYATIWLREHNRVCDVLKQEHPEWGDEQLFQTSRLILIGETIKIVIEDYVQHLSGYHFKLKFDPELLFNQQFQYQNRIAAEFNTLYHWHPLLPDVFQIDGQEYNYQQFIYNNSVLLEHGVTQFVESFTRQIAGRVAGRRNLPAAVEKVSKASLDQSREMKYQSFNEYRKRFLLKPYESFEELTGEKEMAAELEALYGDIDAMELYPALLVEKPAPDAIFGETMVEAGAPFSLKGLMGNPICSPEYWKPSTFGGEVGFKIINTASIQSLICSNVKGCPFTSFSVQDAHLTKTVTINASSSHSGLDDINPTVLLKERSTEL

[1] = system: bone marrow-derived macrophage (BMDM) cells; assay: EFAD formation in activated bone marrow-derived macrophages ± ASA; format: cell-based, C57BL/6 murine; conditions: activated with Kdo2 and IFNγ, treated with ASA
[2] = system: EFAD formation in RAW264.7 cells; assay: Inhibitor study: EFAD formation in RAW264.7 cells activated with Kdo2 and IFNγ; format: cell-based, murine
PPARγ = target: T2, PPARγ (Homo sapiens, UniProt P37231); assay: PPARγ beta-lactamase reporter assay; format: cell-based; conditions: concentrations 0.5-10,000 nM; read-out: PPARγ activation EC50
T2 sequence (P37231 1-505): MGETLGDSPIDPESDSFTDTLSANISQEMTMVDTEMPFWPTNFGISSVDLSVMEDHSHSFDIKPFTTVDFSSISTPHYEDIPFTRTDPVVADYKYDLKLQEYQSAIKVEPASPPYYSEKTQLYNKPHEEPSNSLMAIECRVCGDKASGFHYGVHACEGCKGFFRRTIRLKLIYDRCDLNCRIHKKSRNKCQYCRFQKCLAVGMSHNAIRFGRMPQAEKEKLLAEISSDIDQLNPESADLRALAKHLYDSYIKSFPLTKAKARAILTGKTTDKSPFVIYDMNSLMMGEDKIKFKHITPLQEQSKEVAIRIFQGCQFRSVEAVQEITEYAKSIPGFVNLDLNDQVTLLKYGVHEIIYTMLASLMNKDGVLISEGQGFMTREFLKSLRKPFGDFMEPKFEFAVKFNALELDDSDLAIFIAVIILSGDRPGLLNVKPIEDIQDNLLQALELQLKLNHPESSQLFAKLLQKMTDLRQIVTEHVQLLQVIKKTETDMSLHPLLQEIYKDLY
Experimental: FIG. 11a-11e illustrates modulation of anti-oxidant and inflammatory responses by 17-oxoDHA and 17-oxoDPA. RAW264.7 cells were treated with increasing concentration of 17-oxoDHA and 17-oxoDPA. (a) Cells were harvested 1 h after treatment and Nrf2 levels were quantified in nuclear extracts. (b) Cells were harvested 18 h after treatment and HO-1 and Nqo1 (upper band) levels were measured by western blot. (c, d) RAW264.7 cells were treated with increasing concentration of 17-oxoDHA and 17-oxoDPA for 6 h and Kdo2+IFNγ were added. Samples were collected at 12 h. IL-6, MCP-1 and IL-10 levels were measured in the cell media by Quantikine ELISA Kit (R&D Systems) and normalized by the total protein content (c); Nitrite levels were measured in the cell media and normalized by the total protein content and iNOS and Cox-2 levels were measured in total cell lysates (d); (e) PPARγ beta-lactamase reporter assays were performed for Rosiglitazone, 17-OxoDPA, 17-OxoDHA, 15d-PGJ2, 17-hydroxyDHA, DPA, and DHA with concentrations ranging from 0.5-10,000 nM.
The observation that oxo-fatty acids, such as 15d-PGJ2^30, 5-oxoEPA, 6-oxoOTE, and the synthetic 4-oxoDHA^31, covalently bind and activate the peroxisome proliferator-activated receptor γ (PPARγ), prompted the present inventors to test the ability of 17-oxoDPA, and 17-oxoDHA to activate PPARγ. […]

[3] = RAW264.7 + Kdo2 + IFNγ, 20 h, ↓ decrease, ↑ increase, NE (not defined in patent)

| SMILES | Formation of GS-adducts (RAW264.7 cells) | Formation of OH-DPA by COX-2 (Ovine placental COX-2) | Extent of EFAD formation in BMDM [1] | Increase of EFAD formation ([2]; ASA 200 μM, all EFADs except EFAD-4 and EFAD-6) | Effect of inhibitor on EFAD-1 formation [2, 3] | Effect of inhibitor on EFAD-2 formation [2, 3] | Effect of inhibitor on EFAD-3 formation [2, 3] | Effect of inhibitor on EFAD-4 formation [2, 3] | Effect of inhibitor on EFAD-5 formation [2, 3] | Effect of inhibitor on EFAD-6 formation [2, 3] | EC50 (PPARγ) [nM] |
| --- | --- | --- | --- | --- | --- | --- | --- | --- | --- | --- | --- |
| CC(=O)Oc1ccccc1C(=O)O [ASA, acetyl salicylic acid] | enhanced the formation of GS-adducts | increased the rate and extent of formation | increased about two to three fold | about 2.5 fold | ↑ | ↑ | ↑ | ↓ | ↑ | ↓ |  |
| CCCCCC=CC=C1C(=O)C=C[C@@H]1CC=CCCCC(=O)O [15d-PGJ2, 15-deoxy-Δ (12,14)-prostaglandin J2] |  |  |  |  |  |  |  |  |  |  | ~25 |
